Laboratory results reported in patent US8586617B2, “Aminomethyl-4-imidazoles” (Hoffmann-La Roche Inc., priority 2006, dated 2013).

Each compound was assayed against TAAR1 (Mus musculus (Mouse), UniProt Q923Y8) (assay: TAAR1 radioligand binding assay ([3H]-rac-2-(1,2,3,4-tetrahydro-1-naphthyl)-2-imidazoline, membranes of stably transfected HEK293 cells)). Details: read-out: Ki (μM) mouse; mouse TAAR1; radioligand [3H]-rac-2-(1,2,3,4-tetrahydro-1-naphthyl)-2-imidazoline at 60 nM; 4° C., 30 minutes.
TAAR1, sequence (Q923Y8 whole entry): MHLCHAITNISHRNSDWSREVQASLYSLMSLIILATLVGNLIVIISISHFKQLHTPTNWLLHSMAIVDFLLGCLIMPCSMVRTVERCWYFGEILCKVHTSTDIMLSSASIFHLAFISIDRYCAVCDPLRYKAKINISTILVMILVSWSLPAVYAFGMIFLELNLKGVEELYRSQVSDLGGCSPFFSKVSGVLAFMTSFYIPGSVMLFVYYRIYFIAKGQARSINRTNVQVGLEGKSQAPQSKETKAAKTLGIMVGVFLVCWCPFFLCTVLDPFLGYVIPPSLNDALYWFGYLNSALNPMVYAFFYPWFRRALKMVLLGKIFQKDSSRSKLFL
Experimental: The ability of the compounds of the present invention to bind to TAAR1 was investigated in accordance with the test given hereinafter.
For the generation of stably transfected cell lines HEK293 cells were transfected with the pIRESneo2 expression plasmids containing the TAAR coding sequences (described above) with Lipofectamine 2000 (Invitrogen) according to the instructions of the manufacturer, and 24 hours post transfection the culture medium was supplemented with 1 mg/ml G418 (Sigma, Buchs, Switzerland). After a culture period of about 10 days, clones were isolated, expanded and tested for responsiveness to trace amines (all compounds purchased from Sigma) with the cAMP Biotrak Enzyme immunoassay (EIA) System (Amersham) following the non-acetylation EIA procedure provided by the manufacturer.
Cells at confluence were rinsed with ice-cold phosphate buffered saline without Ca^2+ and Mg^2+ containing 10 mM EDTA and pelleted by centrifugation at 1000 rpm for 5 min at 4° C. The pellet was then washed twice with ice-cold phosphate buffered saline and cell pellet was frozen immediately by immersion in liquid nitrogen and stored until use at −80° C. The cell pellet was then suspended in 20 ml HEPES-NaOH (20 mM), pH 7.4 containing 10 mM EDTA, and homogenized with a Polytron (PT 3000, Kinematica) at 10,000 rpm for 10 seconds. The homogenate was centrifuged at 48,000×g for 30 minutes at 4° C. and the pellet resuspended in 20 ml HEPES-NaOH (20 mM), pH 7.4 containing 0.1 mM EDTA (buffer A), and homogenized with a Polytron at 10,000 rpm for 10 seconds. The homogenate was then centrifuged at 48,000×g for 30 minutes at 4° C. and the pellet resuspended in 20 ml buffer A, and homogenized with a Polytron at 10,000 rpm for 10 seconds. […] The homogenate was then centrifuged at 48,000×g for 10 minutes at 4° C., resuspended in HEPES-NaOH (20 mM), pH 7.0 including MgCl2 (10 mM) and CaCl2 (2 ml) (buffer B) at 200 μg protein per ml and homogenized with a Polytron at 10,000 rpm for 10 seconds.
Binding assay was performed at 4° C. in a final volume of 1 ml, and with an incubation time of 30 minutes. […] Non-specific binding was defined as the amount of [^3H]-rac-2-(1,2,3,4-tetrahydro-1-naphthyl)-2-imidazoline bound in the presence of the appropriate unlabelled ligand (10 μM). Competing ligands were tested in a wide range of concentrations (10 pM-30 μM). […] Each experiment was performed in duplicate. All incubations were terminated by rapid filtration through UniFilter-96 plates (Packard Instrument Company) and glass filter GF/C, pre-soaked for at least 2 h in polyethylenimine 0.3%, and using a Filtermate 96 Cell Harvester (Packard Instrument Company). The tubes and filters were then washed 3 times with 1 ml aliquots of cold buffer B. Filters were not dried and soaked in Ultima gold (45 D/well, Packard Instrument Company) and bound radioactivity was counted by a TopCount Microplate Scintillation Counter (Packard Instrument Company).

| SMILES | Ki [µM] |
| --- | --- |
| CC(C)N(Cc1cnc[nH]1)c1cccc(Oc2cccc(Cl)c2)c1 [Example 206, [3-(3-Chloro-phenoxy)-phenyl]-(3H-imidazol-4-ylmethyl)-isopropyl-amine] | 0.005 |
| Cc1cc(N(Cc2cnc[nH]2)C(C)C)ccc1F [Example 109, (4-Fluoro-3-methyl-phenyl)-(3H-imidazol-4-ylmethyl)-isopropyl-amine] | 0.0041 |
| CCN(Cc1cnc[nH]1)c1ccc(Br)c(F)c1 [Example 305, (4-Bromo-3-fluoro-phenyl)-ethyl-(1H-imidazol-4-ylmethyl)-amine] | 0.002 |
| CC(C)N(Cc1cnc[nH]1)c1ccc(Cl)c(C(F)(F)F)c1 [Example 31, (4-Chloro-3-trifluoromethyl-phenyl)-(3H-imidazol-4-ylmethyl)-isopropyl-amine] | 0.0045 |
| COc1c(F)ccc(N(Cc2cnc[nH]2)C(C)C)c1F [Example 102, (2,4-Difluoro-3-methoxy-phenyl)-(3H-imidazol-4-ylmethyl)-isopropyl-amine] | 0.006 |
| CCN(Cc1cnc[nH]1)c1ccc(OC(F)(F)F)c(Cl)c1 [Example 333, (3-Chloro-4-trifluoromethoxy-phenyl)-ethyl-(1H-imidazol-4-ylmethyl)-amine] | 0.001 |
| CC(C)N(Cc1cnc[nH]1)c1ccc(Br)c(Br)c1 [Example 297, (3,4-Dibromo-phenyl)-(1H-imidazol-4-ylmethyl)-isopropyl-amine] | 0.001 |
| CC(C)N(Cc1cnc[nH]1)c1ccc(Br)cc1 [Example 296, (4-Bromo-phenyl)-(1H-imidazol-4-ylmethyl)-isopropyl-amine] | 0.004 |
| CC(C)N(Cc1cnc[nH]1)c1cccc(-c2ccccc2)c1 [Example 142, Biphenyl-3-yl-(3H-imidazol-4-ylmethyl)-isopropyl-amine] | 0.0079 |

Continued by falling Ki, values first:

| Ki [µM] | SMILES |
| --- | --- |
| 0.0078 | Clc1cccc(N(Cc2ccccc2)Cc2cnc[nH]2)c1 [Example 21, Benzyl-(3-chloro-phenyl)-(1H-imidazol-4-ylmethyl)-amine] |
| 0.005 | COc1cc(N(Cc2cnc[nH]2)C(C)C)ccc1Cl [Example 204, (4-Chloro-3-methoxy-phenyl)-(3H-imidazol-4-ylmethyl)-isopropyl-amine] |
| 0.0023 | Cc1ccc(N(Cc2cnc[nH]2)C(C)C)cc1Cl [Example 128, (3-Chloro-4-methyl-phenyl)-(1H-imidazol-4-ylmethyl)-isopropyl-amine] |
| 0.001 | CCN(Cc1cnc[nH]1)c1cccc(OCc2ccccc2)c1 [Example 192, (3-Benzyloxy-phenyl)-ethyl-(3H-imidazol-4-ylmethyl)-amine] |
